Blank lines part the entries; values can stand above or below the molecule they belong to. The source made the active and inactive calls. No cut-off for these calls is given here.
Tests used:
[1] = target: T1, Stimulator of interferon genes protein (Mus musculus, UniProt Q3TBT3); assay: Inhibition of mouse STING in mouse RAW cells assessed as secreted luciferase reporter of interferon stimulated gene (ISG) measured after 24 hrs incubation by QUANTI-Luc detection assay; type: cell-based
T1 sequence (Q3TBT3 whole entry): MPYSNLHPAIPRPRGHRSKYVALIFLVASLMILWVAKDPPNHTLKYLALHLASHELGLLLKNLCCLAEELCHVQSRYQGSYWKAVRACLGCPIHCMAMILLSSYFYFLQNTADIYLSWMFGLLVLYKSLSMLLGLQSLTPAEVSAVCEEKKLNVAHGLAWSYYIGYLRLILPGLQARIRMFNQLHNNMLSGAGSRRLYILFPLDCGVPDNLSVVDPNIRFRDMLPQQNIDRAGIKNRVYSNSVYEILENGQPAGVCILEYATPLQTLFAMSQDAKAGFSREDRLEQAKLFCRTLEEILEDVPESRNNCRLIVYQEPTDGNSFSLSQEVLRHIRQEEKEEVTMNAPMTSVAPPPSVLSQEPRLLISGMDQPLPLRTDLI

[2] = Inhibition of intracellular DNA induced Ifnb mRNA expression in human IMR-90 cells measured after 6 hrs by PCR assay; settings: IMR-90, 6 h
[3] = Metabolic stability in rat liver microsomes assessed as half life; type: ADME, Microsome
[4] = Metabolic stability in mouse liver microsomes assessed as half life; type: ADME, Microsome
Mus musculus [5] = assay: Anti-inflammatory activity against MSA-2 induced C57BL/6 mouse inflammation model assessed as inhibition of MSA-2 induced IL-6 level in plasma at 10 mg/kg, ip pre-treated for 1 hr followed by stimulated with MSA-2 for 4 hrs by ELISA; type: functional, organism-based; settings: time 5.0 hrs
Mus musculus [6] = assay: Anti-inflammatory activity against MSA-2 induced C57BL/6 mouse inflammation model assessed as inhibition of MSA-2 induced IL-6 mRNA expression in kidney at 10 mg/kg, ip pre-treated for 1 hr followed by stimulated with MSA-2 for 4 hrs by real-time PCR analysis; type: functional, organism-based; settings: time 5.0 hrs
Mus musculus [7] = assay: Anti-inflammatory activity against MSA-2 induced C57BL/6 mouse inflammation model assessed as inhibition of MSA-2 induced Cxcl-10 mRNA expression in kidney at 10 mg/kg, ip pre-treated for 1 hr followed by stimulated with MSA-2 for 4 hrs by real-time PCR analysis; type: functional, organism-based; settings: time 5.0 hrs
HEK293 = assay: Protection of Cisplatin induced apoptosis in human HEK293 cells assessed as apoptotic cells at 10 uM measured after 72 hrs by flow cytometry; type: functional, cell-based
[8] = Metabolic stability in human liver microsomes assessed as microsomal intrinsic clearance; type: ADME, Microsome; settings: read-out: CLH
[9] = Metabolic stability in human liver microsomes assessed as liver intrinsic clearance; type: ADME, Microsome
[10] = Half life in Sprague-Dawley rat at 1 mg/kg, iv; type: ADME, organism-based; settings: in vivo
Mus musculus [11] = assay: Anti-inflammatory activity against MSA-2 induced C57BL/6 mouse inflammation model assessed as inhibition of MSA-2 induced IL-6 level in kidney at 10 mg/kg, ip pre-treated for 1 hr followed by stimulated with MSA-2 for 4 hrs by ELISA; type: functional, organism-based; settings: time 5.0 hrs
Mus musculus [12] = assay: Anti-inflammatory activity against MSA-2 induced C57BL/6 mouse inflammation model assessed as inhibition of MSA-2 induced IP-10 level in plasma at 10 mg/kg, ip pre-treated for 1 hr followed by stimulated with MSA-2 for 4 hrs by ELISA; type: functional, organism-based; settings: time 5.0 hrs
[13] = MRT (0 to infinity) in Sprague-Dawley rat at 1 mg/kg, iv; type: ADME, organism-based; settings: in vivo
[14] = Volume of distribution at steady state in Sprague-Dawley rat at 1 mg/kg, iv; type: ADME, organism-based; settings: in vivo
[15] = Metabolic stability in rat liver microsomes assessed as liver intrinsic clearance; type: ADME, Microsome
[16] = AUC (0 to infinity) in Sprague-Dawley rat at 1 mg/kg, iv; type: ADME, organism-based; settings: in vivo
[17] = Metabolic stability in mouse liver microsomes assessed as liver intrinsic clearance; type: ADME, Microsome
Mus musculus [18] = assay: Anti-inflammatory activity against MSA-2 induced C57BL/6 mouse inflammation model assessed as inhibition of MSA-2 induced Isg15 mRNA expression in kidney at 10 mg/kg, ip pre-treated for 1 hr followed by stimulated with MSA-2 for 4 hrs by real-time PCR analysis; type: functional, organism-based; settings: time 5.0 hrs
[19] = Metabolic stability in mouse liver microsomes assessed as microsomal intrinsic clearance; type: ADME, Microsome; settings: read-out: CLH
Mus musculus [20] = assay: Anti-inflammatory activity against MSA-2 induced C57BL/6 mouse inflammation model assessed as inhibition of MSA-2 induced TNF-alpha mRNA expression in kidney at 10 mg/kg, ip pre-treated for 1 hr followed by stimulated with MSA-2 for 4 hrs by real-time PCR analysis; type: functional, organism-based; settings: time 5.0 hrs
Mus musculus [21] = assay: Anti-inflammatory activity against MSA-2 induced C57BL/6 mouse inflammation model assessed as inhibition of MSA-2 induced IP-10 level in kidney at 10 mg/kg, ip pre-treated for 1 hr followed by stimulated with MSA-2 for 4 hrs by ELISA; type: functional, organism-based; settings: time 5.0 hrs
[22] = Clearance in Sprague-Dawley rat at 1 mg/kg, iv; type: ADME, organism-based; settings: in vivo
[23] = Metabolic stability in human liver microsomes assessed as half life; type: ADME, Microsome
[24] = Metabolic stability in rat liver microsomes assessed as microsomal intrinsic clearance; type: ADME, Microsome; settings: read-out: CLH
Mus musculus [25] = assay: Anti-inflammatory activity against MSA-2 induced C57BL/6 mouse inflammation model assessed as inhibition of MSA-2 induced Isg56 RNA expression in kidney at 10 mg/kg, ip pre-treated for 1 hr followed by stimulated with MSA-2 for 4 hrs by real-time PCR analysis; type: functional, organism-based; settings: time 5.0 hrs
[26] = target: Stimulator of interferon genes protein (Homo sapiens) (UniProt Q86WV6); assay: Binding affinity to Flag-tagged human STING expressed in HEK293T cells assessed as labelling measured after 1 hr by TAMRA-N3 fluorescent assay; type: cell-based
Stimulator of interferon genes protein (Homo sapiens), sequence (Q86WV6 whole entry): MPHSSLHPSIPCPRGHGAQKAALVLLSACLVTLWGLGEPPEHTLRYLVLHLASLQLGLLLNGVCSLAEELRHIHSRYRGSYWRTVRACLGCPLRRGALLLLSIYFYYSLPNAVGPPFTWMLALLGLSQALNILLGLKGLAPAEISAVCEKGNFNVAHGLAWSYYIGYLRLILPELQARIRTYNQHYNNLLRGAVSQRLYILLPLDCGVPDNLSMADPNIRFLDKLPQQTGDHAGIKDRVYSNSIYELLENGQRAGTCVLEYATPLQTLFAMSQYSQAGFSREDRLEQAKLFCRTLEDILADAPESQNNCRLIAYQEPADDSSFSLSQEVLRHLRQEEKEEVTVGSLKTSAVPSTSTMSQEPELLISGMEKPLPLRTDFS

[27] = target: Stimulator of interferon genes protein (Homo sapiens) (UniProt Q86WV6); assay: Binding affinity to Flag-tagged human STING expressed in HEK293T cells assessed as labelling pretreated for 15 mins with (E)-1-(5-(3-Cyanoprop-1-en-1-yl)-1H-indol-3-yl)-3-(2,2-difluorobenzo[d][1,3]dioxol-5-yl)urea followed by treated at 1 uM for 1 hr by TAMRA-N3 fluorescent assay; type: cell-based; settings: time 75.0 min

SMILES: CC[C@@H]1NC(=O)[C@@H]2[C@H](Cl)[C@H](Cl)CN2C(=O)[C@H](CC)NC(=O)C[C@H](c2ccccc2)NC(=O)[C@H](CO)NC1=O
- IC50 [2]: 10800 nM

SMILES: Fc1ccc2[nH]cc(Nc3nc4cc(C5CCCC5)ccc4[nH]3)c2c1
- IC50 [1]: 210 nM

SMILES: CCc1ccc(NC(=O)Nc2c[nH]c3ccccc23)cc1
- half-life [3]: 1.02 min
- half-life [4]: 6.29 min
- inhibition (Mus musculus [5]): Active
- inhibition (Mus musculus [6]): Active
- inhibition (Mus musculus [7]): Active
- Activity (HEK293): Active
- microsomal CLint [8]: 115 µL/min/mg
- CLH [9]: 103 µL/min/mg
- half-life [10]: 9.6 min
- inhibition (Mus musculus [11]): Active
- inhibition (Mus musculus [12]): Active
- MRT inf ([13]; Sprague-Dawley): 12 min
- Vd ([14]; Sprague-Dawley, read-out: Vdss): 1.94 L/kg
- CLH [15]: 2448 µL/min/mg
- AUC(0-inf) [16]: 116 ng·h/mL
- CLH [17]: 873 µL/min/mg
- inhibition (Mus musculus [18]): Active
- microsomal CLint [19]: 220 µL/min/mg
- inhibition (Mus musculus [20]): Active
- inhibition (Mus musculus [21]): Active
- clearance [22]: 144 mL/min/kg
- half-life [23]: 12.1 min
- microsomal CLint [24]: 1360 µL/min/mg
- inhibition (Mus musculus [25]): Active

SMILES: Fc1cc2[nH]cc(Nc3nc4cc(C5CCCC5)ccc4[nH]3)c2cc1F
- IC50 [1]: 305 nM

SMILES: C#Cc1ccc2[nH]cc(NC(=O)Nc3ccc4c(c3)OC(F)(F)O4)c2c1
- Activity [26]: Dose-dependent-effect
- IC50 [1]: 5450 nM
- Activity [27]: inactive

SMILES: Fc1cnc2[nH]cc(Nc3nc4cc(C5CCCC5)ccc4[nH]3)c2c1
- half-life [10]: 25.8 min
- MRT ([13]; iv, 1 mg/kg): 16.2 min
- IC50 [1]: 52.3 nM
- Vdss ([14]; iv, 1 mg/kg): 14.04 L/kg
- AUC(0-inf) [16]: 43.8 ng·h/mL

SMILES: Fc1ccc2[nH]cc(Nc3nc4cc5c(cc4[nH]3)OC(F)(F)O5)c2c1
- IC50 [1]: 229 nM

Further lines, results first:

- IC50 [1]: 407 nM
SMILES: O=C(Nc1ccc2c(c1)OC(F)(F)O2)Nc1c[nH]c2ccccc12

- IC50 [1]: 815 nM
SMILES: O=C(Nc1ccc2c(c1)OC(F)(F)O2)Nc1c[nH]c2ccc(Cl)cc12

- IC50 [1]: 457 nM
SMILES: O=C(Nc1cccc2c1OC(F)(F)O2)Nc1c[nH]c2ccccc12

- IC50 [1]: 776 nM
SMILES: O=C(Nc1ccc2c(c1)OC(F)(F)O2)Nc1c[nH]c2ccc(Br)cc12
